In US20090010880A1 (priority 2007, published 2009):
Values after ≈ are worked out from the molar mass of the structure shown. Where two headings read alike, the source gives them in different places.

Columns and labels:
DV (Dengue Virus) [1] = assay: Cytopathic Effect Assay (CPEA), Dengue virus in BHK cells; format: cell-based
YFV (Yellow Fever Virus) [2] = assay: microbe, parasite or virus in culture; format: cell-based; details: read-out: CPEA EC50
[3] = system: BVDV (Bovine Viral Diarrhea Virus); assay: Cytopathic Effect Assay (CPEA), BVDV in BND cells; format: cell-based; details: Bovine viral diarrhea virus isolates and strains
DV (Dengue Virus) [4] = assay: Yield Reduction Assay (YRA), Dengue virus in BHK cells; format: cell-based
YFV (Yellow Fever Virus) [5] = assay: microbe, parasite or virus in culture; format: cell-based; details: read-out: YRA EC50
[6] = system: BVDV (Bovine Viral Diarrhea Virus); assay: microbe, parasite or virus in culture; format: cell-based; details: for inhibition of virus yield: 6-25 μg/ml, 24 and 48 hours post infection
[7] = Cytotoxicity (CC50) in BHK cells; format: cell-based; details: hamster
[8] = Cytotoxicity (CC50) in BND cells; format: cell-based, Bottle Nose Dolphin; details: bottlenose dolphin, BND skin cells
[9] = Cytotoxicity / cell viability in MDBK cells; format: cell-based, Bovine; details: bovine, MDBK cells
[10] = system: MDBK (Madin-Darby Bovine Kidney) cells; assay: Cytotoxicity / cell viability in MDBK cells; format: cell-based
viral protein NS3 = assay: Western blot analysis of viral NS3 protein; format: cell-based, Bovine Viral Diarrhea Virus; details: 25 μg/ml, 24 hours post infection, MOI of 10
Experimental: MDBK cells were infected with NADL strain of BVDV (MOI 10) in the presence or absence of 25 μg/ml of geneticin. Based on previous publications, the 18-24 h post-infection time point was chosen to determine viral proteins in infected cells. […] Thus, at 24 h post-infection, cell media was removed and cells were washed several times with PBS. Then, 2× concentrated electrophoresis sample buffer was added, cells were scraped from the dish and transferred to a microcentrifuge tube. To reduce viscosity, the samples were sonicated briefly or passed several times through a 26-gauge needle and boiled for 5 min. Fifteen micrograms of lysate sample were run on 10% SDS-PAGE and then transblotted. After blocking for 1 h in blocking buffer (5% dry milk in 0.05% Tween 20 in PBS), membranes were incubated with primary antibody (MAb 20.10.6) diluted 1:1,000 in blocking buffer for 60 min at room temperature and washed with 0.05% Tween 20 in PBS. After incubation with secondary antibody (anti-mouse IgG-HRP; Sigma) diluted 1:200 in blocking buffer for 60 min at room temperature, NS3 was detected with the Amersham ECL kit according to the manufacturer's instructions (Amersham Biosciences, Piscataway, N.J., USA).

[11] = system: BVDV (Bovine Viral Diarrhea Virus); assay: Cytopathic Effect Assay (CPEA) / cell viability, BVDV in MDBK cells; details: for EC50: Bovine viral diarrhea virus isolates and strains, MDBK
BVDV = assay: Antiviral activity against BVDV (structure-function analysis); format: cell-based, Bovine Viral Diarrhea Virus

## CN[C@@H]1[C@@H](O)[C@@H](O[C@@H]2[C@@H](O)[C@H](O[C@H]3O[C@H]([C@@H](C)O)[C@@H](O)[C@H](O)[C@H]3N)[C@@H](N)C[C@H]2N)OC[C@]1(C)O [Geneticin]
DV (Dengue Virus) [1]
  EC50: 4 µg/mL (≈ 8.06 µM)
YFV (Yellow Fever Virus) [2]
  EC50: 20 µg/mL (≈ 40.3 µM)
[3]
  EC50: 50 µg/mL (≈ 101 µM)
DV (Dengue Virus) [4]
  EC50: 5 µg/mL (≈ 10.1 µM)
YFV (Yellow Fever Virus) [5]
  EC50: 10 µg/mL (≈ 20.1 µM)
[6]
  viral production: below 10 % of control
[6]; Bovine viral diarrhea virus isolates and strains, MDBK, BVDV, MDBK cells, read-out: YRA EC50
  EC50: ~4 µg/mL (≈ 8.06 µM)
[6]; NADL strain
  inhibition of virus yield: 10-100 fold
[6]; NY-1 strain
  inhibition of virus yield: 10-100 fold
[7]
  CC50: 160 µg/mL (≈ 322 µM)
[8]
  CC50: > 2000 µg/mL
[9]
  CC50: 400 µg/mL (≈ 806 µM)
[10]; 31-250 μg/ml, 72 hours
  MDBK cell viability (uninfected): no effect
[10]; high doses
  concentration with cell toxicity (downward curve of cell viability): above 400 μg/ml
Viral protein NS3
  synthesis of the viral protein NS3: no effect
[11]; read-out: CPEA EC50, BVDV, MDBK cells
  EC50: ~4 µg/mL (≈ 8.06 µM)
[11]; read-out: EC50 concentration for antiBVDV activity, BVDV
  EC50: 4 µg/mL (≈ 8.06 µM)

## CC(=O)O[C@H]1C[C@@]2(C)[C@@H](C[C@@H](O)[C@H]3[C@@]4(C)CC[C@@H](O)[C@@H](C)[C@@H]4CC[C@@]32C)/C1=C(\CCC=C(C)C)C(=O)O [fusidic acid]
BVDV
  antiviral activity against BVDV: inactive

## gentamicin
[11]; NADL, MDBK cells, 12 μg/ml per drug
  cell viability of cpBVDV-infected cells (cytoprotection against NADL): decreased the cell viability

## NC[C@@H]1O[C@H](O[C@H]2[C@@H](O)[C@H](O[C@@H]3[C@@H](O)[C@H](N)C[C@H](N)[C@H]3O[C@H]3O[C@H](CO)[C@@H](O)[C@H](O)[C@H]3N)O[C@@H]2CO)[C@H](N)[C@@H](O)[C@@H]1O [paromomycin]
BVDV
  antiviral activity against BVDV: no antiviral activity
